This is an account of results in publication PMC3079261 (Tetrahedron letters, 2011).

In the test the target is FGFR1 kinase domain (Homo sapiens, UniProt P11362). Put plainly: ALPHAScreen assay of inhibition of phosphorylation by FGFR1 kinase. In kind it is biochemical.
Sequence of FGFR1 kinase domain (P11362 478-767 limits assumed): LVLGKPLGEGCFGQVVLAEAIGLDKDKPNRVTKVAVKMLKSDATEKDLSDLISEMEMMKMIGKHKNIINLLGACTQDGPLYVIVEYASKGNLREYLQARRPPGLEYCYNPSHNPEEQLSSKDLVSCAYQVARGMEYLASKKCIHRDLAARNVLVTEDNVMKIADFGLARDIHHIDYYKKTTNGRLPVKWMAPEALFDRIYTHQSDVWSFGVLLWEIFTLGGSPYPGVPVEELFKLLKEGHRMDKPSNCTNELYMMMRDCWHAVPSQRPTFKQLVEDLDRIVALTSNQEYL

The term IC50 denotes the concentration needed to halve the response being measured. In turn, `COc1cc(OC)cc(-c2ccc3c(c2)sc2nc(-c4ccc(OCC(=O)O)c(OC)c4)[nH]c(=O)c23)c1` [compound 6, 2-(4-(7-(3,5-dimethoxyphenyl)-4-oxo-3,4-dihydrobenzo[4,5]thieno[2,3-d]pyrimidin-2-yl)-2-methoxyphenoxy)acetic acid] registered an IC50 of 28 µM.

The compound `COc1cc(OC)cc(-c2ccc3c(c2)sc2nc(CCC(=O)O)[nH]c(=O)c23)c1` [compound 7, 3-(7-(3,5-dimethoxyphenyl)-4-oxo-3,4-dihydrobenzo[4,5]thieno[2,3-d]pyrimidin-2-yl)propanoic acid] showed an IC50 of 21 µM.
